Laboratory results reported in patent US20090123563A1, “Pharmaceutical Preparations Comprising Insulin, Zinc Ions and Zinc-Binding Ligand” (NOVO NORDISK A/S, priority 2005, published 2009).

SMILES | melting point [°C]
O=C1NC(=O)/C(=C/c2c[nH]c3ccc([N+](=O)[O-])cc23)S1 | 330 to 333
CC(/C=C1\SC(=O)NC1=O)=C\c1ccccc1 | 203 to 210
O=C1NC(=O)/C(=C/c2cc3ccccc3[nH]c2=O)S1 | 338 to 347
O=C1NC(=O)/C(=C/c2c(Cl)cccc2Cl)S1 | 152 to 154
COc1cc(O)cc(OC)c1/C=C1\SC(=O)NC1=O | 331 to 333
O=C1NC(=O)/C(=C/c2cc3ccccc3o2)S1 | 265 to 266
CN(C)c1ccc(/C=C/C=C2\SC(=O)NC2=O)cc1 | 259 to 263
COc1cccc(OC)c1/C=C1\SC(=O)NC1=O | 241 to 242
COc1cc(/C=C2\SC(=O)NC2=O)cc(I)c1O | 256
c1cc(COc2ccc3ccccc3c2)cc(-c2nnn[nH]2)c1 | 200 to 202
O=C1NC(=O)/C(=C/C(Cl)=C/c2ccccc2)S1 | 251 to 254
Cc1cccc(C)c1/C=C1\SC(=O)NC1=O | 104 to 105
O=C1NC(=O)/C(=C/c2ccc3cc(O)ccc3c2)S1 | 310 to 314
COc1cc(OCc2c(F)cccc2[N+](=O)[O-])cc(OC)c1/C=C1\SC(=O)NC1=O | 255 to 256
